Reference: ChEMBL document CHEMBL1201862, “PubChem BioAssay data set” (2004)
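How tested: cells in 96-well plates exposed to compound for 48 hours at five concentrations. The concentration for 50% growth inhibition is given as GI50.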 Activity calls are given as the source filed them. No stated cut-off is given here; in the data, active = GI50 up to about 1.1 µM and inactive = higher.

How the values were obtained:
Test in all cases: NCI tumour cell line growth inhibition, 48 h
[1] = system: NCI-H226
[2] = system: A498
[3] = system: MOLT-4
[4] = system: Malme-3M
[5] = system: COLO 205
[6] = system: OVCAR-8
[7] = system: NCI-H460
[8] = system: T47D
[9] = system: SN12C
[10] = system: OVCAR-5
[11] = system: HCT-15
[12] = system: NCI/ADR-RES
[13] = system: SW-620
[14] = system: MDA-N
[15] = system: NCI-H23
[16] = system: SR
[17] = system: KM12
[18] = system: U-251
[19] = system: MCF7
[20] = system: HT-29
[21] = system: RPMI-8226
[22] = system: UACC-257
[23] = system: HOP-62
[24] = system: HOP-92
[25] = system: SK-MEL-28
[26] = system: 786-0
[27] = system: PC-3
[28] = system: MDA-MB-435
[29] = system: HL-60
[30] = system: RXF 393
[31] = system: SF-539
[32] = system: TK-10
[33] = system: SF-268
[34] = system: DU-145
[35] = system: UO-31
[36] = system: SNB-19
[37] = system: A549
[38] = system: BT-549
[39] = system: M14
[40] = system: SF-295
[41] = system: K562
[42] = system: OVCAR-3
[43] = system: CCRF-CEM
[44] = system: ACHN
[45] = system: SK-MEL-5
[46] = system: HCC 2998
[47] = system: LOX IMVI
[48] = system: Hs-578T
[49] = system: OVCAR-4
[50] = system: MDA-MB-231
[51] = system: HCT-116
[52] = system: IGROV-1
[53] = system: NCI-H522
[54] = system: EKVX
[55] = system: CAKI-1
[56] = system: SK-MEL-2
[57] = system: SNB-75
[58] = system: SK-OV-3
[59] = system: UACC-62

Measured: GI50

Cc1cc(C)c(N[S+]([O-])c2cccc(C(F)(F)F)c2)c(C)c1 (centres undefined)
inactive: [1] > 100 µM | [2] > 100 µM | [3] > 100 µM | [4] > 100 µM | [5] > 100 µM | [6] > 100 µM | [7] > 100 µM | [8] > 100 µM | [9] > 100 µM | [10] > 100 µM | [12] > 100 µM | [13] > 100 µM | [14] > 100 µM | [15] > 100 µM | [16] > 100 µM | [17] > 100 µM | [18] > 100 µM | [19] > 100 µM | [20] > 100 µM | [21] > 100 µM | [22] > 100 µM | [23] > 100 µM | [24] > 100 µM | [25] > 100 µM | [26] > 100 µM | [27] > 100 µM | [28] > 100 µM | [29] > 100 µM | [30] > 100 µM | [31] > 100 µM | [32] > 100 µM | [33] > 100 µM | [34] > 100 µM | [35] > 100 µM | [36] > 100 µM | [37] > 100 µM | [38] > 100 µM | [39] > 100 µM | [40] > 100 µM | [41] > 100 µM | [42] > 100 µM | [43] > 100 µM | [44] > 100 µM
> 100 µM: [11]

O=C(O)c1c(CC(Cc2ccc3c(c2)CCC3)C(=O)O)ccc2c1CCC2 (centres undefined)
> 100 µM: [11]
inactive: [1] > 100 µM | [2] > 100 µM | [3] > 100 µM | [4] > 100 µM | [5] > 100 µM | [6] > 100 µM | [7] > 100 µM | [45] > 100 µM | [9] > 100 µM | [46] > 100 µM | [10] > 100 µM | [47] > 100 µM | [12] > 100 µM | [13] > 100 µM | [14] > 100 µM | [15] > 100 µM | [16] > 100 µM | [17] > 100 µM | [18] > 100 µM | [19] > 100 µM | [20] > 100 µM | [21] > 100 µM | [48] > 100 µM | [49] > 100 µM | [22] > 100 µM | [23] > 100 µM | [24] > 100 µM | [25] > 100 µM | [26] > 100 µM | [27] > 100 µM | [50] > 100 µM | [28] > 100 µM | [29] > 100 µM | [51] > 100 µM | [31] > 100 µM | [32] > 100 µM | [52] > 100 µM | [34] > 100 µM | [35] > 100 µM | [53] > 100 µM | [36] > 100 µM | [37] > 100 µM | [38] > 100 µM | [39] > 100 µM | [40] > 100 µM | [41] > 100 µM | [42] > 100 µM | [54] > 100 µM | [55] > 100 µM | [43] > 100 µM | [44] > 100 µM | [56] > 100 µM

O=C(Nc1nc(C23CC4CC(CC(C4)C2)C3)cs1)c1cc2cc([N+](=O)[O-])ccc2oc1=O
85.1 µM: [11]
inactive: [1] > 100 µM | [2] 36.3 µM | [3] 57.8 µM | [4] 46.2 µM | [5] 41 µM | [6] > 100 µM | [7] 52.6 µM | [45] 25.6 µM | [9] > 100 µM | [46] > 100 µM | [10] > 100 µM | [47] 47.1 µM | [12] 35.7 µM | [13] 33.6 µM | [14] > 100 µM | [15] 77.1 µM | [16] 68.4 µM | [17] > 100 µM | [18] 43 µM | [19] 56.8 µM | [20] 58.1 µM | [21] > 100 µM | [48] 20.3 µM | [49] 17.8 µM | [22] > 100 µM | [23] 39.7 µM | [24] 54.8 µM | [25] 75.5 µM | [26] 17.7 µM | [57] 20.3 µM | [27] 56.9 µM | [50] 20.9 µM | [28] 73.8 µM | [29] > 100 µM | [30] 19.2 µM | [51] 37 µM | [31] > 100 µM | [32] > 100 µM | [52] 45.3 µM | [33] 26.2 µM | [34] 86.7 µM | [35] > 100 µM | [53] > 100 µM | [36] 72.1 µM | [37] 70.5 µM | [38] 14.3 µM | [40] 38.1 µM | [41] > 100 µM | [42] 73.3 µM | [54] 53 µM | [55] > 100 µM | [43] 55.6 µM | [44] 47.3 µM

CN1CCN(c2cc3c(cc2F)c(=O)c(C(=O)O)cn3C2CC2)CC1CC#N (centres undefined)
inactive: [1] > 100 µM | [2] > 100 µM | [3] > 100 µM | [4] > 100 µM | [5] > 100 µM | [6] > 100 µM | [7] > 100 µM | [8] > 100 µM | [45] > 100 µM | [9] > 100 µM | [46] > 100 µM | [10] > 100 µM | [47] > 100 µM | [12] > 100 µM | [13] > 100 µM | [14] > 100 µM | [15] > 100 µM | [16] > 100 µM | [17] > 100 µM | [18] > 100 µM | [19] > 100 µM | [20] > 100 µM | [58] > 100 µM | [21] > 100 µM | [49] > 100 µM | [22] > 100 µM | [23] > 100 µM | [25] > 100 µM | [26] > 100 µM | [57] > 100 µM | [50] > 100 µM | [28] > 100 µM | [59] > 100 µM | [29] > 100 µM | [30] > 100 µM | [51] > 100 µM | [31] > 100 µM | [32] > 100 µM | [52] > 100 µM | [33] > 100 µM | [34] > 100 µM | [35] > 100 µM | [36] > 100 µM | [37] > 100 µM | [38] > 100 µM | [40] > 100 µM | [41] > 100 µM | [42] > 100 µM | [54] > 100 µM | [55] > 100 µM | [43] > 100 µM | [44] > 100 µM
> 100 µM: [11]

CCOc1ccc(NC(=O)/C=C/c2ccco2)cc1
41.2 µM: [11]
inactive: [1] 86.9 µM | [2] 42.7 µM | [3] 40 µM | [4] > 100 µM | [5] 36.1 µM | [6] 85.9 µM | [7] 43.8 µM | [45] 44.3 µM | [9] 79.6 µM | [46] 35.2 µM | [10] > 100 µM | [47] 54.3 µM | [12] 30.8 µM | [13] > 100 µM | [14] 12.3 µM | [15] > 100 µM | [16] 28.8 µM | [17] 30.5 µM | [18] 33.8 µM | [19] 75.2 µM | [20] 26.4 µM | [58] 32.4 µM | [21] 32.3 µM | [48] 65 µM | [22] 72.9 µM | [25] > 100 µM | [26] > 100 µM | [57] 84.3 µM | [27] 35.6 µM | [50] > 100 µM | [28] 5.98 µM | [59] > 100 µM | [29] 11.9 µM | [30] 67.1 µM | [51] 41.2 µM | [31] 26 µM | [32] > 100 µM | [52] > 100 µM | [33] 78.7 µM | [34] 47 µM | [35] 87.1 µM | [53] > 100 µM | [36] > 100 µM | [37] > 100 µM | [38] 38 µM | [39] 58.2 µM | [40] 61.8 µM | [41] 24.2 µM | [42] > 10 µM | [54] 87.3 µM | [55] > 100 µM | [43] 34.8 µM | [44] > 100 µM | [56] > 100 µM
